The text below walks through data of patent publication US20260297128A1, “PEPTOID COMPOSITIONS TARGETING RAS PROTEINS AND METHODS OF TREATMENT OF CANCER USING THE SAME” (University of Houston System, priority 2023, published 2026).

Broadly, the IC50 is the concentration that gives 50% inhibition.

The subject of assay [1] is H441 cells. Briefly: MTS cell viability assay. The class given is cell-based. As to conditions: H441 (KRASG12V); vs PKR1. The text has this: Three cancer cell lines (H441, H358, and H1993) harboring KRAS G12V, KRAS G12C, and WT KRAS, respectively, were subjected to treatment with the fatty acid conjugated-PKR1. […] FIGS. 6A-6C are graphical representations of the effects of the fatty acid conjugated PKR1 derivatives on cell survival and proliferation of (A) H441, (B) H358, and (C) H1993 cell lines. FIG. 6D presents the IC50 values of fatty acid conjugated PKR1 derivatives in H441, H1993, and H358 cell lines. […] As KRAS is predominant in the membrane consisting of unsaturated fatty acids, conjugating unsaturated fatty acids to PKR1 can facilitate its anchoring onto the membrane, thereby improving efficacy.
To examine the capacity of PKR1 derivatives as broad-spectrum KRAS inhibitors, MTS assays were conducted in various types of cell lines representing different cancer types, KRAS mutations, and KRAS gene zygosity (Table 1). IC50 values for each cell line were obtained from the MTS assay with PKR1-C16 treatment.
(Formazan colour is commonly taken as a measure of viable cells.)

The test system of assay [2] is H441 cells. The experiment in a line: Cell viability, single and combination treatment with MEK/ERK inhibitors. As to conditions: Homo sapiens, NCI-H441; single treatment, 3 D incubation; heterozygous KRAS G12V. In kind it is cell-based. An excerpt:
Provided herein are pan-KRAS inhibitors that can enhance the sensitivity of heterozygous KRAS mutant cells to KRAS downstream inhibitors, thereby overcoming limitations in their use for cancer therapy. FIG. 11A is an illustration presenting that heterozygous KRAS mutant cells are resistant to the inhibition of KRAS downstream signaling while homozygous KRAS mutant cells are sensitive to such inhibition, therefore blocking wild type KRAS potentially re-sensitizes the heterozygous KRAS mutant cells to the inhibition of KRAS downstream signaling. Cell viability of H441 cells harboring heterozygous KRAS G12V were assessed in combination treatment with PKR1-C16. FIG. 11B is a graphical representation presenting the cell viability of H441 harboring heterozygous KRAS G12V with co-treatments of Trametinib (upper panel) and Ulixertinib with PKR1-C16 (lower panel). […] Concentration gradients of Trametinib and Ulixertinib were co-treated with 1, 3, 5, and 7 μM of PKR1-C16, respectively. […] Blocking WT KRAS enables the re-sensitization of heterozygous KRAS mutant cells to the inhibitors of KRAS downstream signaling.

The test system of assay [3] is H2122 cells. The conditions noted are these: homozygous KRAS G12C (H2122) vs heterozygous KRAS G12C (H23); cited from earlier work.

Structures are written as SMILES. Non-standard residues stand in square brackets, D forms with d. Residues, ends and D or L forms follow the SMILES beside them. *: point of attachment. X2 = COc1ccc(CN(CC(=O)N(CCCOC(C)C)CC(=O)*)C(=O)CCC(=O)c2cccs2)cc1; N(4-MeOBn)Gly = COc1ccc(CNCC(=O)O)cc1; N((CH2)3OiPr)Gly = CC(C)OCCCNCC(=O)O; Stearoyl = CCCCCCCCCCCCCCCCCC(=O)*; Palmitoyl = CCCCCCCCCCCCCCCC(=O)*; Myristoyl = CCCCCCCCCCCCCC(=O)*; Gly(N-cHex) = O=C(O)CNC1CCCCC1; X1 = O=C(CCC(=O)*)c1cccs1; Nlys = NCCCCNCC(=O)O; Nme = COCCNCC(=O)O

As to `CCCCCCCCCCCCCC(=O)NCCCC[C@H](NC(=O)[C@H](C)NC(=O)CN(CCOC)C(=O)CN(CCCCN)C(=O)CN(CCCCN)C(=O)CN(C(=O)CN(CCCOC(C)C)C(=O)[C@H](CCCCNC(=O)CN(CCCOC(C)C)C(=O)CN(Cc1ccc(OC)cc1)C(=O)CCC(=O)c1cccs1)NC(=O)CN(CCCOC(C)C)C(=O)CN(Cc1ccc(OC)cc1)C(=O)CCC(=O)c1cccs1)C1CCCCC1)C(N)=O` [PKR1-C14] (X1-[N(4-MeOBn)Gly][N((CH2)3OiPr)Gly]K(X2)[N((CH2)3OiPr)Gly][Gly(N-cHex)][Nlys][Nlys][Nme]AK(Myristoyl)-NH2), the increase in potency result in assay [1] was “over 25 fold”.

For the compound `CCCCCCCCCCCCCCCC(=O)NCCCC[C@H](NC(=O)[C@H](C)NC(=O)CN(CCOC)C(=O)CN(CCCCN)C(=O)CN(CCCCN)C(=O)CN(C(=O)CN(CCCOC(C)C)C(=O)[C@H](CCCCNC(=O)CN(CCCOC(C)C)C(=O)CN(Cc1ccc(OC)cc1)C(=O)CCC(=O)c1cccs1)NC(=O)CN(CCCOC(C)C)C(=O)CN(Cc1ccc(OC)cc1)C(=O)CCC(=O)c1cccs1)C1CCCCC1)C(N)=O` [PKR1-C16] (X1-[N(4-MeOBn)Gly][N((CH2)3OiPr)Gly]K(X2)[N((CH2)3OiPr)Gly][Gly(N-cHex)][Nlys][Nlys][Nme]AK(Palmitoyl)-NH2), in assay [1], the increase in potency result is “over 25 fold”.

Take `CCCCCCCCCCCCCCCCCC(=O)NCCCC[C@H](NC(=O)[C@H](C)NC(=O)CN(CCOC)C(=O)CN(CCCCN)C(=O)CN(CCCCN)C(=O)CN(C(=O)CN(CCCOC(C)C)C(=O)[C@H](CCCCNC(=O)CN(CCCOC(C)C)C(=O)CN(Cc1ccc(OC)cc1)C(=O)CCC(=O)c1cccs1)NC(=O)CN(CCCOC(C)C)C(=O)CN(Cc1ccc(OC)cc1)C(=O)CCC(=O)c1cccs1)C1CCCCC1)C(N)=O` [PKR1-C18] (X1-[N(4-MeOBn)Gly][N((CH2)3OiPr)Gly]K(X2)[N((CH2)3OiPr)Gly][Gly(N-cHex)][Nlys][Nlys][Nme]AK(Stearoyl)-NH2): the increase in potency entry in assay [1] is given as “over 25 fold”.

Regarding `CC(=O)Nc1cccc(-n2c(=O)n(C3CC3)c(=O)c3c(Nc4ccc(I)cc4F)n(C)c(=O)c(C)c32)c1` [Trametinib, trametinib], the 50% inhibitory concentration (IC50) in assay [2] was determined as 10.4 µM. In assay [3], the “potency in H2122 compared with H23 cells” value is given as “higher potency in H2122 cells”.

On to `CC(C)Nc1cc(-c2c[nH]c(C(=O)N[C@H](CO)c3cccc(Cl)c3)c2)c(Cl)cn1` [Ulixertinib, ulixertinib], for which the half-inhibitory concentration (IC50) in assay [2] turned out to be 17 µM. Besides, the “potency in H2122 compared with H23 cells” value in assay [3] is recorded as “higher potency in H2122 cells”.
